Experimental findings from patent US8906885B2, “Treating cancer with HSP90 inhibitory compounds” (Synta Pharmaceuticals Corp., priority 2011, dated 2014) are described below.

Read-outs that look alike come from different tables or passages of the source.

Series [1] has as its system NB-39-nu neuroblastoma cell line. The series is described as follows: NB-39-nu neuroblastoma cell viability. The following applies: for effect in combination with ganetespib: NB-39-nu cells.
Another series relates to H3122 NSCLC cells. Nature of the series: H3122 cell viability, Cell Titer Glo, 72 h. The format is cell-based. As to conditions: for IC50: Homo sapiens, NCI-H3122, read-out: cytotoxic potency. As to the method:
H3122 cells were seeded in 96 well plates at a density of 7500 cells per well.
Twenty-four hours after plating, cells were dosed with graded concentrations of drug or vehicle for 72 hours. Viability was measured by the Cell Titer Glo assay (Promega).
(§1) Then, criztoinib was added to a final concentration of 1 μM. […] Viability was measured by Cell Titer Glo assay (Promega) (FIG. 5)
For orientation: In ATP-based viability assays light output follows the ATP content of the culture.

In series [2] the test system is H3122 xenografts. The series is described as follows: Sequential treatment of H3122 xenografts progressing on ganetespib. Type of series: in vivo, mouse. The following applies: after 26 days of ganetespib.
Series [3] concerns H3122 xenografts. The series is described as follows: Survival of animals bearing H3122 xenografts. Type of series: in vivo, mouse.
Series [4] concerns crizotinib-resistant NPM-ALK/BaF3 cells. The following applies: all crizotinib-resistant NPM-ALK/BaF3 clones.
The target in series [5] is T1, EML4-ALK (Homo sapiens, UniProt Q9UM73).
T1 construct: the breakpoint of ALK occurs consistently at exon 20, 5′ of the kinase domain; EML4 N-terminal portion (through exon 13); endogenous in cells; host or cells: H3122 NSCLC cells; the other entry of the earlier key: EML4 (Q9HC35, Echinoderm microtubule-associated protein-like 4)
Nature of the series: Western blot of EML4-ALK and signaling proteins in H3122 cells. The format is cell-based. As to the method: H3122 cells were plated in 6 well plates at a density of 300,000 cells per well. […] Equivalent amounts of protein were resolved by SDS-PAGE followed by western blot analysis of signaling proteins.

Another series relates to EML4-ALK positive NSCLC. The series is described as follows: Case study, crizotinib refractory EML4-ALK positive NSCLC patient. Type of series: in vivo, human. As to conditions: after three weeks of once-weekly injections; patient with resistance mutation to crizotinib. The text has this: FIG. 2 depicts lung photographs of a person with NSCLC, who was diagnosed, and treated with pemetrexed/cisplatinum with pemetrexed maintenance for thirteen months. […] The picture on the left was taken on before commencing treatment with ganetespib. Treatment of ganetespib was initiated nine days later. The picture on the right was taken thirty-one days after the picture on the left.
The picture on the left was taken on before commencing treatment with ganetespib. Treatment of ganetespib was initiated nine days later.

A further series relates to ALK. The series is described as follows: ALK degradation and effector signaling in NB-39-nu cells.
A further series concerns H2228 NSCLC cells. Nature of the series: H2228 cell viability. Type of series: cell-based.
Series [6] relates to EML4-ALK. The series is described as follows: Pharmacodynamic analysis in H3122 xenografts (western blot). In general terms: In western blotting, separated proteins are transferred to a membrane and probed.
For series [7], the system named is crizotinib resistant H2228 cells. Nature of the series: Viability of crizotinib resistant H2228 cells. The format is cell-based.
In another series the test system is ALK+ NSCLC. The series is described as follows: Phase 2 NSCLC trial, patients tested for ALK translocation or rearrangement (ALK+). The format is in vivo, human. As to conditions: eight ALK+ patients; monotherapy once-weekly 200 mg/m^2. The text has this:
FIG. 1 is a waterfall diagram showing the best percentage changes in size of target lesions responses according to ALK status after treatment with ganetespib. The y axis represents the percentage tumor volume change from baseline. […] A subject was considered to be ALK+ if a mutation in ALK was detected using any of the methods.
Of 23 patients in a Phase 2 trial tested for ALK translocation or rearrangement (ALK+), eight patients were ALK+ in at least one assay. […] The disease control rate in this population was ⅞ (88%), and the objective response rate (CR+PR) was 4/8 (50%).
This Phase 2 NSCLC trial was designed to enroll patients with advanced, metastatic disease (Stage IIIB and IV) who had failed prior therapy. Patients were grouped into one of three cohorts based on the genetic profile of their cancer—(A) EGFR mutation, (B) KRAS mutation, (C) neither EGFR nor KRAS mutation—and were treated with Compound 1, as a monotherapy, once-weekly at a dose of 200 mg/m^2. Based on initial encouraging signs of activity, the trial was expanded with two additional patient cohorts, including a cohort which allowed for combination treatment with ganetespib and docetaxel.

Series [8] relates to NPM-ALK and mutant NPM-ALK. Nature of the series: Immunoblotting of NPM-ALK degradation in BaF3 cells. Type of series: cell-based. As to conditions: wild type and 15 mutant forms.
The subject of series [9] is crizotinib resistant H3122 cells. Nature of the series: Viability of crizotinib resistant H3122 cells. Type of series: cell-based. As to the method: as §1
The subject of series [10] is H3122 xenografts. As to the method:
Tumor volume was measured twice weekly to assess the level of growth inhibition.
As for in vivo xenograft tumor models, female BALB/c, immunodeficient BALB/c nude and CB-17/Icr-Prkdcscid/Crl (SCID) mice (Charles River Laboratories, Wilmington, Mass.) at 7-12 weeks of age were maintained in a pathogen-free environment and all in vivo procedures were approved by the Synta Pharmaceuticals Corp. Statistical analyses were performed using a Kruskal-Wallace one-way ANOVA on ranks followed by the Tukey test. […]

In a further series the test system is NPM-ALK/BaF3 cells. Nature of the series: Cytotoxic IC50 by XTT assay, NPM-ALK/BaF3 cells. As to conditions: read-out: cytotoxic IC50; crizotinib-sensitive parental NPM-ALK/BaF3, 72-hr incubation. (In general: Tetrazolium assays rely on reduction of a dye to a coloured formazan, in cell work by metabolically active cells.)

T1 sequence (Q9UM73 with tags, fused parts or gaps): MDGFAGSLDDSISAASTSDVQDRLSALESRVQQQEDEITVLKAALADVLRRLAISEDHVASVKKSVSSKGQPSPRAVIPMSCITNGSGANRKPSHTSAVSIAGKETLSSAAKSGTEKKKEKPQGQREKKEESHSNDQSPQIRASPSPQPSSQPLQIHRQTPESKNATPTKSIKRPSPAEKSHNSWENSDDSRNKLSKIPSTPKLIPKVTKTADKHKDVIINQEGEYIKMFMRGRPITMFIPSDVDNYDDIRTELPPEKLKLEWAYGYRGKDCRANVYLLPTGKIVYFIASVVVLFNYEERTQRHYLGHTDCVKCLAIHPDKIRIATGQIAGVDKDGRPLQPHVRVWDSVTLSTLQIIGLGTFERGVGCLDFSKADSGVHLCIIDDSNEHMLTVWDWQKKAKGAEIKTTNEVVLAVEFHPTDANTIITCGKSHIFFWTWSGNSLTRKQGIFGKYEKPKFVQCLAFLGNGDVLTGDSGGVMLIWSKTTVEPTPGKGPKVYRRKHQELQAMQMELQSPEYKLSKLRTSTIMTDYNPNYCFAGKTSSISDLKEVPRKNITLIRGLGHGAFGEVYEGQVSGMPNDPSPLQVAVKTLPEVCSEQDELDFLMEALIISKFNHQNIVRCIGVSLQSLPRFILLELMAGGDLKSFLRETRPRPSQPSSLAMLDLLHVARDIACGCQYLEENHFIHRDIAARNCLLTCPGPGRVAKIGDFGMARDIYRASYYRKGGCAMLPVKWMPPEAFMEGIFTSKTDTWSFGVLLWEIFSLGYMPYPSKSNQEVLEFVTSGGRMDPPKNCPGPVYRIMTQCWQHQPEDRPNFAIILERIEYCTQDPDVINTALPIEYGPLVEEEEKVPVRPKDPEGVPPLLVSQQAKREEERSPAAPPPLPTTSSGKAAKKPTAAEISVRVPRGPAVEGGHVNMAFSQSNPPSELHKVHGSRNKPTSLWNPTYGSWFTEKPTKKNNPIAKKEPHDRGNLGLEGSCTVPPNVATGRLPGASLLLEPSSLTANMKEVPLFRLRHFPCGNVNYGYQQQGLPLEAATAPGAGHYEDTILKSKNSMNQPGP

With `COc1cc(N2CCC(N3CCN(C)CC3)CC2)ccc1Nc1ncc(Cl)c(Nc2ccccc2S(=O)(=O)C(C)C)n1` [TAE684], the “effect in combination with ganetespib” value in series [1] is recorded as “enhanced the anticancer actions of ganetespib”.
Consider `C[C@@H](Oc1cc(-c2cnn(C3CCNCC3)c2)cnc1N)c1c(Cl)ccc(F)c1Cl` [crizotinib, reference compound], for which, in the series with H3122 NSCLC cells (H3122 cells), the IC50 is 156 nM. Also, the “effect in combination with ganetespib” value in series [1] is given as “enhanced the anticancer actions of ganetespib”. Further, the “response of tumors progressing (>20% increase in volume) on ganetespib to subsequent treatment” value with H3122 xenografts [2] is “intermediary response”. Further, in the series on H3122 xenografts [3] (crizotinib 50 mg/kg 5×/wk), the “survival (day at which 50% of animals died)” value amounted to 54 days.
Take `CC(C)c1cc(-c2nnc(O)n2-c2ccc3c(ccn3C)c2)c(O)cc1O` [ganetespib, 3-(2,4-dihydroxy-5-isopropyl-phenyl)-4-(1-methyl-indol-5-yl)-5-hydroxy-[1,2,4] triazole]: the “potency compared with crizotinib” value in the series on H3122 NSCLC cells (H3122 NSCLC cells) and in the series on H2228 NSCLC cells was “significantly more potent than crizotinib” in each case. Further, in the series on H3122 NSCLC cells (H3122 cells), the “potency relative to crizotinib” value is on record as approximately 50 times. For the same molecule, in the series with H3122 NSCLC cells (H3122 cells, 72 hours), the “potency compared to other anticancer agents (crizotinib, 17-AAG, pemetrexed, BEZ-235, AZD6244)” value is listed as 2-300 ×. Moreover, the IC50 with H3122 NSCLC cells (H3122 cells) is 3.2 nM; in [1] (Neuroblastoma cell, read-out: viability IC50) it was 10 nM; with NPM-ALK/BaF3 cells, 21 nM. In series [4], the “IC50 values in crizotinib-resistant clones” value is given as “essentially identical to that of NPM-ALK/BaF3”. The “concentration giving complete loss of phosphorylated EML4-ALK” value on EML4-ALK [5] stood at 30 nM. Further, the “response of tumors progressing (>20% increase in volume) on ganetespib to subsequent treatment” value in the series with H3122 xenografts [2] is listed as “remained fairly stable”. In addition, the “animals lost on study” value in the series with H3122 xenografts [3] (ganetespib 50 mg/kg 1×/wk, as of day 75) is on record as “none of the animals treated with ganetespib had been lost”. For the same molecule, in the series with EML4-ALK positive NSCLC, the “tumor response on lung pictures” value is “visible and significant tumor shrinkage”. The “degradation of ALK” value is “dose-dependent degradation” with ALK; “induced the degradation of wild type and all 15 mutant forms of ALK” in series [8]. For the same molecule, the “duration of EML4-ALK depletion and block of oncogenic signaling pathways” value in the series on EML4-ALK [6] (100 mpk (FIG. 13 legend)) was “up to 4 days”. Further, the “time to degradation of EML4-ALK and deactivation of ERK signaling” value in the series with EML4-ALK [6] (single bolus injection 50 mg/kg) is given as not above 24 h. Besides, the “duration of destabilization of fusion kinase and its effectors” value in the series on EML4-ALK [6] (single dose 50 mg/kg) is on record as “up to 72 h”. Moreover, the “activity in crizotinib resistant cells” value in [7] and in series [9] was “low nanomolar activity equivalent to that observed in the parental population” throughout. Moreover, in the series with ALK+ NSCLC, the disease control rate was determined as 88%. Besides, the “objective response rate (CR+PR)” value with ALK+ NSCLC is listed as 50%. In the series on ALK+ NSCLC, the “patients showing tumor shrinkage in target lesions” value was 75%. The T/C value in the series on H3122 xenografts [10] (ganetespib 25 mg/kg once weekly) was found to be 41%; in the series on H3122 xenografts [10] (ganetespib 25 mg/kg two consecutive days each week), 10%; with H3122 xenografts [10] (ganetespib 50 mg/kg i.v. once a week, 3 week period), 21%.
